The test system of one series is pterygium patients. The series can be described thus: Safety (adverse events) of 10% HP-β-CD vehicle in the Phase 2 pterygium clinical trial. The conditions noted are these: 10% as vehicle in the Phase 2 pterygium clinical trial.
Series [1] relates to Patients with Primary or Recurrent Pterygium. The series can be described thus: Phase 2a clinical trial in pterygium patients: Pterygium Symptom and Life Quality (PSLQ) questionnaire scores. Format: in vivo, human. The source says: 2-HP-β-CD Formulation I was used as vehicle.
A trend of effects also remained after the stop of treatment at weeks 8, 16, and 24. The other questions didn't generate statistically significant effects.
These ocular symptoms are often observed in MGD patients. Scores of these symptoms were graded by patients as part of PSLQ questionnaires.

The conditions of series [2]: cited from earlier work; for Ability to form soluble complex with cholesterol in aqueous solution: 37° C., CDs 1.0 × 10^−2 M; for Increase in Absorbance (600 nm) Due to Cholesterol Dissolved by CDs: Aqueous solution at 37° C., concentration of CDs 1.0 × 10^−2 M.
Series [3] is described as follows: Screening of CDs and CD derivatives for ability to dissolve cholesterol in water (HPLC). To be noted: for Concentrations of Cholesterol in CDs Solution: 5 days shaking at ambient; for Ability to dissolve cholesterol in water: CD 1, 10, 20% (w/v). Format: physicochemical. Here is the method: Purpose: To determine the level of cholesterol that can be dissolved in water when 10 different CDs and their derivatives were added at three concentrations.
All CD solutions were prepared with starting 20% (w/v) solutions by accurately adding about 800 mg CDs in 4 milliliter water, 1% and 10% were diluted from this 20% solution to 2 mL for each sample preparation experiment.
Cholesterol was added accurately to all CD water solutions at about 40 mg/mL or about 80 mg per 2 mL. This amount of cholesterol was enough to fully saturate the CD solutions with white settlements or floating or both. All samples were conditioned at ambient by shaking using a rotator for 5 days.
After the equilibration with shaking for 5 days at ambient, the clear or semi-clear portion was filtered with 0.2 μm filter. 50 μL of the filtered solution was diluted with 450 μL methanol (10 X) for HPLC analysis. NOVAPAK phenyl column (7.6 cm by 3.9 mm I.D.) was used with a mobile phase of acetonitrile: water (70:30) at a flow rate of 0.5 ml/min and detection at UV at 210 nm.

Setting [4] is: Baseline, Modified Intent-to-Treat Population, N = 23.
The mark [5] stands for this setting: Week 2, 10% (w/w) TID for 4 weeks, N = 23.
[6] abbreviates: Week 4, 10% (w/w) TID for 4 weeks, N = 23.
[7] abbreviates: Week 8 (after treatment period), N = 23.
[8] abbreviates: Week 16 (after treatment period), N = 23.
[9] abbreviates: Week 24 (after treatment period), N = 23.

For the molecule “2-Hydroxypropyl-beta-cyclodextrin [2-HP-β-CD]”, the “Safety profile” value in the series with pterygium patients was “excellent safety profile”. Further, the “PSLQ scores compared to the baseline” value in series [1] (2-HP-β-CD-treated group, N = 23) is reported as “significant improvements”. Moreover, the “Magnitude of reduction in PSLQ ocular symptom score, dry eye vs no dry eye patients” value in series [1] (10%, pterygium patients with vs without dry eye condition) is listed as “statistically significant bigger”. In series [1] (setting [4]), the “PSLQ Average Ocular Symptom Score, Mean (SD)” value is given as 0.88 (0.81); the “PSLQ Average Quality of Life Impact Score, Mean (SD)” value is given as 0.57 (0.92); the “PSLQ Average Vision-Related Functioning Score, Mean” value stood at 0.57; the “PSLQ Overall Average Score, Mean (SD)” value is on record as 0.70 (0.66). Besides, in series [1] (setting [5]), the “PSLQ Average Ocular Symptom Score, Change from Baseline, Mean (SD)” value was −0.36 (0.69); the “PSLQ Average Quality of Life Impact Score, Change from Baseline, Mean (SD)” value is reported as −0.19 (0.39); the “PSLQ Average Vision-Related Functioning Score, Change from Baseline, Mean” value is given as −0.27; the “PSLQ Overall Average Score, Change from Baseline, Mean (SD)” value (“PSLQ Overall Average Score, Change … (SD)” below) is −0.28 (0.45). In series [1] (setting [6]), the “PSLQ Average Ocular Symptom Score, Change from Baseline, Mean (SD)” value is given as −0.46 (0.71); the “PSLQ Average Quality of Life Impact Score, Change from Baseline, Mean (SD)” value was −0.19 (0.50); the “PSLQ Average Vision-Related Functioning Score, Change from Baseline, Mean” value was −0.48; the “PSLQ Overall Average Score, Change … (SD)” value is given as −0.35 (0.51). Besides, in series [1] (setting [7]), the “PSLQ Average Ocular Symptom Score, Change from Baseline, Mean (SD)” value is recorded as −0.39 (0.84); the “PSLQ Average Quality of Life Impact Score, Change from Baseline, Mean (SD)” value is given as −0.17 (0.52); the “PSLQ Average Vision-Related Functioning Score, Change from Baseline, Mean” value is recorded as −0.43; the “PSLQ Overall Average Score, Change … (SD)” value was −0.30 (0.55). In series [1] (setting [8]), the “PSLQ Average Ocular Symptom Score, Change from Baseline, Mean (SD)” value is given as −0.29 (0.79); the “PSLQ Average Quality of Life Impact Score, Change from Baseline, Mean (SD)” value was −0.13 (0.68); the “PSLQ Average Vision-Related Functioning Score, Change from Baseline, Mean” value is on record as −0.23; the “PSLQ Overall Average Score, Change … (SD)” value was −0.20 (0.64). Also, in series [1] (setting [9]), the “PSLQ Average Ocular Symptom Score, Change from Baseline, Mean (SD)” value is on record as −0.33 (0.90); the “PSLQ Average Quality of Life Impact Score, Change from Baseline, Mean (SD)” value was −0.15 (0.59); the “PSLQ Average Vision-Related Functioning Score, Change from Baseline, Mean” value was −0.11; the “PSLQ Overall Average Score, Change … (SD)” value is −0.22 (0.73). In series [2], the “Ability to form soluble complex with cholesterol in aqueous solution” value (shortened to “Ability to form soluble complex”) is recorded as “only a weak ability” and the “Increase in Absorbance (600 nm) Due to Cholesterol Dissolved by CDs” value (shortened to “Increase in Absorbance (600 nm) Due”) is 0.01. Besides, the “Concentrations of Cholesterol in CDs Solution” value (“Concentrations of Cholesterol” below) in series [3] (CD 1% (w/v) in water) worked out at 10 µg/mL. Besides, the “Ability to dissolve cholesterol in water” value in series [3] was “substantial ability”. Besides, in series [3] (CD 10% (w/v) in water), the “Concentrations of Cholesterol” value was 820 µg/mL. The “Concentrations of Cholesterol” value in series [3] (CD 20% (w/v) in water) came out at 2980 µg/mL.
As to “2-hydroxypropyl-alpha-cyclodextrin [HP-ACD, reference compound]”, the “Ability to dissolve cholesterol in water” value in series [3] is “no detectable cholesterol dissolving activity”.
For “2-hydroxypropyl-gamma-cyclodextrin [HP-GCD, reference compound]”, the “Ability to dissolve cholesterol in water” value in series [3] was “extremely low levels”. The figures for the “Concentrations of Cholesterol” value in series [3] (CD 10% (w/v) in water) and in series [3] (CD 20% (w/v) in water) were 3 µg/mL and 11 µg/mL, respectively.
`OC[C@H]1O[C@H](O[C@H]2[C@H](O)[C@@H](O)[C@@H](OC[C@H]3O[C@@H]4O[C@H]5[C@H](O)[C@@H](O)[C@@H](O[C@H]6[C@H](O)[C@@H](O)[C@@H](O[C@H]7[C@H](O)[C@@H](O)[C@@H](O[C@H]8[C@H](O)[C@@H](O)[C@@H](O[C@H]9[C@H](O)[C@@H](O)[C@@H](O[C@H]%10[C@H](O)[C@@H](O)[C@@H](O[C@H]3[C@H](O)[C@H]4O)O[C@@H]%10CO)O[C@@H]9CO)O[C@@H]8CO)O[C@@H]7CO)O[C@@H]6CO)O[C@@H]5CO)O[C@@H]2CO)[C@H](O)[C@@H](O)[C@@H]1O` [6-AM-BCD, 6-O-alpha-maltosyl-beta-cyclodextrin, reference compound]: the figures for the “Concentrations of Cholesterol” value in series [3] (CD 1% (w/v) in water), in series [3] (CD 10% (w/v) in water) and in series [3] (CD 20% (w/v) in water) were 30 µg/mL, 2570 µg/mL and 3380 µg/mL, respectively. For the same molecule, the “Ability to dissolve cholesterol in water” value in series [3] was “about half lower”.
For the molecule `OC[C@H]1O[C@@H]2O[C@H]3[C@H](O)[C@@H](O)[C@@H](O[C@H]4[C@H](O)[C@@H](O)[C@@H](O[C@H]5[C@H](O)[C@@H](O)[C@@H](O[C@H]6[C@H](O)[C@@H](O)[C@@H](O[C@H]7[C@H](O)[C@@H](O)[C@@H](O[C@H]1[C@H](O)[C@H]2O)O[C@@H]7CO)O[C@@H]6CO)O[C@@H]5CO)O[C@@H]4CO)O[C@@H]3CO` [ACD, alpha-cyclodextrin], in series [2], the “Ability to form soluble complex” value is “do not form soluble complexes” and the “Increase in Absorbance (600 nm) Due” value is 0.
For `OC[C@H]1O[C@@H]2O[C@H]3[C@H](O)[C@@H](O)[C@@H](O[C@H]4[C@H](O)[C@@H](O)[C@@H](O[C@H]5[C@H](O)[C@@H](O)[C@@H](O[C@H]6[C@H](O)[C@@H](O)[C@@H](O[C@H]7[C@H](O)[C@@H](O)[C@@H](O[C@H]8[C@H](O)[C@@H](O)[C@@H](O[C@H]1[C@H](O)[C@H]2O)O[C@@H]8CO)O[C@@H]7CO)O[C@@H]6CO)O[C@@H]5CO)O[C@@H]4CO)O[C@@H]3CO` [BCD, beta-cyclodextrin], the “Ability to form soluble complex” value in series [2] was “do not form soluble complexes”.
In the case of `COC[C@H]1O[C@@H]2O[C@H]3[C@H](O)[C@@H](OC)[C@@H](O[C@H]4[C@H](O)[C@@H](OC)[C@@H](O[C@H]5[C@H](O)[C@@H](OC)[C@@H](O[C@H]6[C@H](O)[C@@H](OC)[C@@H](O[C@H]7[C@H](O)[C@@H](OC)[C@@H](O[C@H]8[C@H](O)[C@@H](OC)[C@@H](O[C@H]1[C@H](O)[C@H]2OC)O[C@@H]8COC)O[C@@H]7COC)O[C@@H]6COC)O[C@@H]5COC)O[C@@H]4COC)O[C@@H]3COC` [DM-BCD, heptakis (2,6-di-O-methyl)-beta-cyclodextrin], in series [2], the “Ability to form soluble complex” value is reported as “strong ability”. Further, the “Increase in Absorbance (600 nm) Due” value in series [2] is 0.336. Moreover, the “Concentrations of Cholesterol” value in series [3] (CD 1% (w/v) in water) was 190 µg/mL; in series [3] (CD 10% (w/v) in water) it was 5130 µg/mL; in series [3] (CD 20% (w/v) in water), 10430 µg/mL. Further, the “Ability to dissolve cholesterol in water” value in series [3] was “the best”.
As for `OC[C@H]1O[C@@H]2O[C@H]3[C@H](O)[C@@H](O)[C@@H](O[C@H]4[C@H](O)[C@@H](O)[C@@H](O[C@H]5[C@H](O)[C@@H](O)[C@@H](O[C@H]6[C@H](O)[C@@H](O)[C@@H](O[C@H]7[C@H](O)[C@@H](O)[C@@H](O[C@H]8[C@H](O)[C@@H](O)[C@@H](O[C@H]9[C@H](O)[C@@H](O)[C@@H](O[C@H]1[C@H](O)[C@H]2O)O[C@@H]9CO)O[C@@H]8CO)O[C@@H]7CO)O[C@@H]6CO)O[C@@H]5CO)O[C@@H]4CO)O[C@@H]3CO` [GCD, gamma-cyclodextrin], in series [2], the “Ability to form soluble complex” value is reported as “do not form soluble complexes” and the “Increase in Absorbance (600 nm) Due” value was 0.
As to `COC(=O)c1ccc2c(c1)NC(=O)/C2=C(\Nc1ccc(N(C)C(=O)CN2CCN(C)CC2)cc1)c1ccccc1` [Nintedanib, reference compound], the “PSLQ ocular symptom score, Nintedanib 0.2% vs Vehicle” value in series [1] (pterygium patients with dry eye condition) is recorded as “no statistically significant differences”.
For random methyl-beta-cyclodextrin [M-BCD], the “Concentrations of Cholesterol” value in series [3] (CD 1% (w/v) in water) worked out at 150 µg/mL; in series [3] (CD 10% (w/v) in water) it was 6030 µg/mL; in series [3] (CD 20% (w/v) in water), 14200 µg/mL. In series [3], the “Ability to dissolve cholesterol in water” value is reported as “the best”.
Consider “sulfobutylated beta-cyclodextrin [SBE-BCD]”, for which the “Concentrations of Cholesterol” value in series [3] (CD 1% (w/v) in water) is 2 µg/mL; in series [3] (CD 10% (w/v) in water), 30 µg/mL; in series [3] (CD 20% (w/v) in water), 150 µg/mL.

These data come from US20220362282A1, “COMPOSITIONS AND METHODS FOR TREATING EYE DISEASES” (ADS THERAPEUTICS LLC, priority 2019, published 2022).
